In patent US9260429B2, “Pyrido[3,4-B]indoles and methods of use” (Medivation Technologies, Inc., priority 2008, dated 2016):
Where two headings read alike, the source gives them in different places.

Key:
[1] = molecular target: T1, human recombinant histamine H1 receptor (Homo sapiens, UniProt P35367); assay: Histamine H1 radioligand binding ([3H]Pyrilamine)
T1 construct: expressed in transfected cells; host or cells: CHO cells
Procedure, shortened: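 Binding to the human recombinant histamine H1 receptor, expressed in CHO cells, was measured in a modified Tris-HCl buffer (50 mM Tris-HCl, pH 7.4, 2 mM MgCl2, 100 mM NaCl, 250 mM Sucrose). Compounds were incubated with 1.2 nM [3H]Pyrilamine for 180 minutes at 25° C, with 1 μM pyrilamine defining non-specific binding. After filtration and washing, filter counts gave percent inhibition of specific binding.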

[2] = molecular target: T2, human recombinant adrenergic α2B receptor (Homo sapiens, UniProt P18089); assay: Adrenergic α2B radioligand binding ([3H]Rauwolscine)
T2 construct: expressed in transfected cells; host or cells: CHO-K1 cells
T2 sequence (P18089 1-450): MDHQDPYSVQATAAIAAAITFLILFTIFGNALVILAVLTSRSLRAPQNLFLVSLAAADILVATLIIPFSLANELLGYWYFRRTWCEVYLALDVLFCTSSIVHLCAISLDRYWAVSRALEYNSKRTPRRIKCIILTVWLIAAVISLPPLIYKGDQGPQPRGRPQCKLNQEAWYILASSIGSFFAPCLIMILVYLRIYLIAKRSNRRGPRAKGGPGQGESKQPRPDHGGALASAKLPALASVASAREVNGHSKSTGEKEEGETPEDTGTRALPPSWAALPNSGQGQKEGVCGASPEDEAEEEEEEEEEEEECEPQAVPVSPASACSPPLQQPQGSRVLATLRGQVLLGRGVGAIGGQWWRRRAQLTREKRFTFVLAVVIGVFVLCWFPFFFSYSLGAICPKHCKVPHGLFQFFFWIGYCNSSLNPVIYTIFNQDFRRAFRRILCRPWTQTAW
Procedure: To evaluate in radioligand binding assays the activity of compounds of the invention, human recombinant adrenergic α2B receptor expressed in Chinese hamster ovary (CHO-K1) cells (Uhlen S et al. Eur J. Pharmacol. 343(1):93, 1998) in a modified Tris-HCl buffer (50 mM Tris-HCl, pH 7.4, 12.5 mM MgCl2, 1 mM EDTA, 0.2% BSA) was used. Compounds of the invention were incubated with 2.5 nM [^3H]Rauwolscine for 60 minutes at 25° C. Non-specific binding was estimated in the presence of 10 μM Prozosin. Receptor proteins were filtered and washed, the filters were then counted to determine [^3H]Rauwolscine specifically bound. Compounds were screened at 1 μM or lower, using 1% DMSO as vehicle. Biochemical assay results are presented as the percent inhibition of specific binding in Table 4.

[3] = 1 μM, read-out: Binding data (Percentage Inhibition) Histamine Binding (1 μM) H1
[4] = 1 h, read-out: Percent Inhibition of ligand binding Adrenergic (1 μM ligand conc.) α2B

T1 sequence (P35367 whole entry): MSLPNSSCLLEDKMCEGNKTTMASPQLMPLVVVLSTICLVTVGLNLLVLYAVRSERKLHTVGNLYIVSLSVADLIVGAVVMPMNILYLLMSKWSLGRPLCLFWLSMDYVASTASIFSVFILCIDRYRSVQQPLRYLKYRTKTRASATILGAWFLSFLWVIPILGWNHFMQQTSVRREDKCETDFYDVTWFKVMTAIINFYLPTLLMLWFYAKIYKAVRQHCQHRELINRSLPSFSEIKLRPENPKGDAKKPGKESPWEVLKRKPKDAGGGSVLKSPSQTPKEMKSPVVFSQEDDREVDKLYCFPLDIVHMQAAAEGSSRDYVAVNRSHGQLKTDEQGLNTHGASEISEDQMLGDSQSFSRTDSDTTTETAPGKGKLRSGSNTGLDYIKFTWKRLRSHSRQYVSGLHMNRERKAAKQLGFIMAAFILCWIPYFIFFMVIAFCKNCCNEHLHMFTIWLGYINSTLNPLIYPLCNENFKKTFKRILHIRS

SMILES: CN1CCc2c(n(CC(=O)O)c3ccc(Cl)cc23)C1 [Compound 52, 2-(6-chloro-1,2,3,4-tetrahydro-2-methylpyrido[3,4-b]indol-9-yl)acetic acid]
- inhibition at 1 µM [1, 3]: 3%
- inhibition at 1 µM [2, 4]: 9%

SMILES: CN1CCc2c(n(CC(=O)N(C)C)c3ccc(Cl)cc23)C1 [Compound 16, 2-(6-chloro-1,2,3,4-tetrahydro-2-methylpyrido[3,4-b]indol-9-yl)-N,N-dimethylacetamide]
- inhibition at 1 µM [1, 3]: 16%
- inhibition at 1 µM [2, 4]: -7%

SMILES: Cc1ccc(C(O)Cn2c3c(c4cc(C)ccc42)CCN(C)C3)cc1 (centres unmarked) [Compound 72]
- inhibition at 1 µM [1, 3]: 55%
- inhibition at 1 µM [2, 4]: 105%

SMILES: CN1CCc2c(n(CC(=O)N3CCCC3)c3ccc(Cl)cc23)C1 [Compound 40, 2-(6-chloro-1,2,3,4-tetrahydro-2-methylpyrido[3,4-b]indol-9-yl)-1-(pyrrolidin-1-yl)ethanone]
- inhibition at 1 µM [1, 3]: 7%
- inhibition at 1 µM [2, 4]: 18%

SMILES: COc1ccc(C(O)Cn2c3c(c4cc(C)ccc42)CCN(C)C3)cc1OC (centres unmarked) [Compound 66]
- inhibition at 1 µM [1, 3]: 19%
- inhibition at 1 µM [2, 4]: 74%

SMILES: CN1CCc2c(n(CC(=O)N(C)C3CCCCC3)c3ccc(Cl)cc23)C1 [Compound 18, 2-(6-chloro-1,2,3,4-tetrahydro-2-methylpyrido[3,4-b]indol-9-yl)-N-cyclohexyl-N-methylacetamide]
- inhibition at 1 µM [1, 3]: 10%
- inhibition at 1 µM [2, 4]: 19%

SMILES: Cc1ccc2c(c1)c1c(n2CC(O)c2ccccc2)CN(C)CC1 (centres unmarked) [Compound 67]
- inhibition at 1 µM [1, 3]: 35%
- inhibition at 1 µM [2, 4]: 106%

SMILES: CN1CCc2c(n(CC(=O)NC3CCCCC3)c3ccc(Cl)cc23)C1 [Compound 17, 2-(6-chloro-1,2,3,4-tetrahydro-2-methylpyvrido[3,4-b]indol-9-yl)-N-cyclohexylacetamide]
- inhibition at 1 µM [1, 3]: 54%
- inhibition at 1 µM [2, 4]: 14%

SMILES: CN1CCc2c(n(CC(=O)N3CCCCC3)c3ccc(Cl)cc23)C1 [Compound 58, 2-(6-chloro-2-methyl-3,4-dihydro-1H-pyrido[3,4-b]indol-9(2H)-yl)-1-(piperidin-1-yl)ethanone]
- inhibition at 1 µM [1, 3]: 2%
- inhibition at 1 µM [2, 4]: -15%

SMILES: CN1CCc2c(n(CCN3CCCCC3)c3ccc(Cl)cc23)C1 [Compound 34, 6-chloro-2,3,4,9-tetrahydro-2-methyl-9-(2-(piperidin-1-yl)ethyl)-1H-pyrido[3,4-b]indole]
- inhibition at 1 µM [1, 3]: 56%
- inhibition at 1 µM [2, 4]: 38%

SMILES: COc1ccc(C(O)Cn2c3c(c4cc(Cl)ccc42)CCN(C)C3)cc1OC (centres unmarked) [Compound 70]
- inhibition at 1 µM [1, 3]: 39%
- inhibition at 1 µM [2, 4]: 77%

SMILES: CN1CCc2c(n(CC(C)(O)c3ccc(F)cc3)c3ccc(Cl)cc23)C1 (centres unmarked) [Compound 62, 1-(6-chloro-2-methyl-3,4-dihydro-1H-pyrido[3,4-b]indol-9(2H)-yl)-2-(4-fluorophenyl)propan-2-ol]
- inhibition at 1 µM [1, 3]: 48%
- inhibition at 1 µM [2, 4]: 102%

SMILES: COC(=O)Cn1c2c(c3cc(Cl)ccc31)CCN(C)C2 [Compound 54, methyl 2-(6-chloro-2-methyl-3,4-dihydro-1H-pyrido[3,4-b]indol-9(2H)-yl)acetate]
- inhibition at 1 µM [1, 3]: 5%
- inhibition at 1 µM [2, 4]: 18%

SMILES: CN1CCc2c(n(CCCC(=O)N3CCCCC3)c3ccc(Cl)cc23)C1 [Compound 44, 4-(6-chloro-1,2,3,4-tetrahydro-2-methylpyrido[3,4-b]indol-9-yl)-1-(piperidin-1-yl)butan-1-one]
- inhibition at 1 µM [1, 3]: 62%
- inhibition at 1 µM [2, 4]: 20%

SMILES: Cc1ccc2c(c1)c1c(n2CC(=O)O)CN(C)CC1 [Compound 53, 2-(1,2,3,4-tetrahydro-2,6-dimethylpyrido[3,4-b]indol-9-yl)acetic acid]
- inhibition at 1 µM [1, 3]: 5%
- inhibition at 1 µM [2, 4]: 6%

SMILES: Cc1ccc2c(c1)c1c(n2CC(C)(O)c2ccc(F)cc2)CN(C)CC1 (centres unmarked) [Compound 61, 1-(2,6-dimethyl-3,4-dihydro-1H-pyrido[3,4-b]indol-9(2H)-yl)-2-(4-fluorophenyl)propan-2-ol]
- inhibition at 1 µM [1, 3]: 49%
- inhibition at 1 µM [2, 4]: 101%

SMILES: Cc1ccc(CCCn2c3c(c4cc(Cl)ccc42)CCN(C)C3)cn1 [Compound 56, 6-chloro-2-methyl-9-(3-(6-methylpyridin-3-yl)propyl)-2,3,4,9-tetrahydro-1H-pyrido[3,4-b]indole]
- inhibition at 1 µM [1, 3]: 30%
- inhibition at 1 µM [2, 4]: -10%

SMILES: Cc1ccc2c(c1)c1c(n2CC(O)c2ccccc2F)CN(C)CC1 (centres unmarked) [Compound 60, 2-(2,6-dimethyl-3,4-dihydro-1H-pyrido[3,4-b]indol-9(2H)-yl)-1-(2-fluorophenyl)ethanol]
- inhibition at 1 µM [1, 3]: 19%
- inhibition at 1 µM [2, 4]: -5%

SMILES: CN1CCc2c(n(CC(O)c3ccccc3F)c3ccc(Cl)cc23)C1 (centres unmarked) [Compound 59, 2-(6-chloro-2-methyl-3,4-dihydro-1H-pyrido[3,4-b]indol-9(2H)-yl)-1-(2-fluorophenyl)ethanol]
- inhibition at 1 µM [1, 3]: 13%
- inhibition at 1 µM [2, 4]: 97%

SMILES: CN1CCc2c(n(CC(=O)Nc3ccc(F)cc3)c3ccc(Cl)cc23)C1 [Compound 15, 2-(6-chloro-1,2,3,4-tetrahydro-2-methylpyrido[3,4-b]indol-9-yl)-N-(4-fluorophenyl)acetamide]
- inhibition at 1 µM [1, 3]: 0%
- inhibition at 1 µM [2, 4]: 8%

SMILES: CC(C)CCN(C)C(=O)Cn1c2c(c3cc(Cl)ccc31)CCN(C)C2 [Compound 14, 2-(6-chloro-1,2,3,4-tetrahydro-2-methylpyrido[3,4-b]indol-9-yl)-N-isopentyl-N-methylacetamide]
- inhibition at 1 µM [1, 3]: 0%
- inhibition at 1 µM [2, 4]: -16%

SMILES: CN1CCc2c(n(CC(O)c3ccccc3)c3ccc(Cl)cc23)C1 (centres unmarked) [Compound 71]
- inhibition at 1 µM [1, 3]: 54%
- inhibition at 1 µM [2, 4]: 95%

SMILES: Cc1ccc2c(c1)c1c(n2CCc2ccc(C(F)(F)F)nc2)CN(C)CC1 [Compound 5, 9-(2-(6-(trifluoromethyl)pyridin-3-yl)ethyl)-2,3,4,9-tetrahydro-2,6-dimethyl-1H-pyrido[3,4-b]indole]
- inhibition at 1 µM [1, 3]: 35%
- inhibition at 1 µM [2, 4]: 83%

SMILES: CN1CCc2c(n(CCCc3ccccc3)c3ccc(Cl)cc23)C1 [Compound 29, 6-chloro-2,3,4,9-tetrahydro-2-methyl-9-(3-phenylpropyl)-1H-pyrido[3,4-b]indole]
- inhibition at 1 µM [1, 3]: 98%
- inhibition at 1 µM [2, 4]: 79%

SMILES: Cc1ccc2c(c1)c1c(n2/C=C/c2ccccc2)CN(C)CC1 [Compound 92]
- inhibition at 1 µM [1, 3]: 99%
- inhibition at 0.03 µM ([1]; compound concentration 0.03 μM, read-out: Percentage inhibition of ligand binding to H1 receptor): 67%
- inhibition at 0.1 µM ([1]; compound concentration 0.1 μM, read-out: Percentage inhibition of ligand binding to H1 receptor): 91%
- inhibition at 0.3 µM ([1]; compound concentration 0.3 μM, read-out: Percentage inhibition of ligand binding to H1 receptor): 96%
- inhibition at 1 µM ([1]; compound concentration 1 μM, read-out: Percentage inhibition of ligand binding to H1 receptor): 99%
- inhibition at 1 µM [2, 4]: 104%
- inhibition at 1 µM ([2]; compound concentration 1 μM, read-out: Percentage inhibition of ligand binding to Adrenergic α2B receptor): 104%

SMILES: CN1CCc2c(n(CC(=O)N3CCNCC3)c3ccc(Cl)cc23)C1 [Compound 55, 2-(6-chloro-2-methyl-3,4-dihydro-1H-pyrido[3,4-b]indol-9(2H)-yl)-1-(piperazin-1-yl)ethanone]
- inhibition at 1 µM [1, 3]: 90%
- inhibition at 1 µM [2, 4]: -21%

SMILES: Cc1ccc2c(c1)c1c(n2CC(=O)N2CCCCC2)CN(C)CC1 [Compound 57, 2-(2,6-dimethyl-3,4-dihydro-1H-pyrido[3,4-b]indol-9(2H)-yl)-1-(piperidin-1-yl)ethanone]
- inhibition at 1 µM [1, 3]: 0%
- inhibition at 1 µM [2, 4]: 29%

SMILES: COC(=O)Cn1c2c(c3cc(C)ccc31)CCN(C)C2 [Compound 21, methyl 2-(1,2,3,4-tetrahydro-2,6-dimethylpyrido[3,4-b]indol-9-yl)acetate]
- inhibition at 1 µM [1, 3]: 3%
- inhibition at 1 µM [2, 4]: 11%

SMILES: Cc1ccc2c(c1)c1c(n2CCC(=O)N2CCCCC2)CN(C)CC1 [Compound 43, 3-(1,2,3,4-tetrahydro-2,6-dimethylpyrido[3,4-b]indol-9-yl)-1-(piperidin-1-yl)propan-1-one]
- inhibition at 1 µM [1, 3]: 30%
- inhibition at 1 µM [2, 4]: -14%

SMILES: CN1CCc2c(n(CCC3CCCC3)c3ccc(Cl)cc23)C1 [Compound 35, 6-chloro-9-(2-cyclopentylethyl)-2,3,4,9-tetrahydro-2-methyl-1H-pyrido[3,4-b]indole]
- inhibition at 1 µM [1, 3]: 98%
- inhibition at 1 µM [2, 4]: 65%
